One series relates to K562 cells. Kind of series: Cell death assay, Experiment 1 (live cells counted by trypan blue). Format: cell-based. Conditions: Homo sapiens, 100 nM, 48 hours, read-out: % live cells (vs control).

In the case of `Cc1cn(-c2ccc(NC(=O)c3ccc(C)c(C#Cc4ccc(NC(C)C)nn4)c3)cc2C(F)(F)F)cn1` [Compound 19, 3-(2-(6-(Isopropylamino)pyridazin-3-yl)ethynyl)-4-methyl-N-(4-(4-methyl-1H-imidazol-1-yl)-3-(trifluoromethyl)phenyl)benzamide], the melting point – broadly, the temperature, or range, at which the solid turns liquid – was in the range of 141 to 143 °C.
As to `CN1CCN(Cc2ccc3nc(-c4ccc(Cl)c(C#Cc5ccc(NC6CCC6)nn5)c4)[nH]c3c2)CC1` [Compound 8, 6-(2-(2-Chloro-5-(6-((4-methylpiperazin-1-yl)methyl)-1H-benzo[d]imidazol-2-yl)phenyl)ethynyl)-N-cyclobutylpyridazin-3-amine], the melting point was 161 to 163 °C.
`Cc1cn(-c2cc(NC(=O)c3ccc(Cl)c(C#Cc4cnc(NC5CC5)nc4)c3)cc(C(F)(F)F)c2)cn1` [Compound 33, 4-Chloro-3-(2-(2-(cyclopropylamino)pyrimidin-5-yl)ethynyl)-N-(3-(4-methyl-1H-imidazol-1-yl)-5-(trifluoromethyl)phenyl)benzamide]: the melting point was 163 to 165 °C. For the same molecule, the viability at 0.1 µM with K562 cells amounted to 7.97%.
In the case of `Cc1ccc(-c2nc3ccc(CN4CCN(C)CC4)cc3[nH]2)cc1C#Cc1cnc(NC2CC2)nc1` [Compound 5, N-Cyclopropyl-5-(2-(2-methyl-5-(6-((4-methylpiperazin-1-yl)methyl)-1H-benzo[d]imidazol-2-yl)phenyl)ethynyl)pyrimidin-2-amine], the melting point is 136 to 137 °C. Also, in the series with K562 cells, the viability at 0.1 µM was determined as 10.8%.
For `CN1CCN(Cc2ccc3nc(-c4ccc(Cl)c(C#Cc5cnc6cccnn56)c4)[nH]c3c2)CC1` [Compound 6, 3-(2-(2-Chloro-5-(6-((4-methylpiperazin-1-yl)methyl)-1H-benzo[d]imidazol-2-yl)phenyl)ethynyl)imidazo[1,2-b]pyridazine] the same measures were 156 to 157 °C and 10.1%.
The molecule `Cc1cn(-c2ccc(NC(=O)c3ccc(Cl)c(C#Cc4ccc(NC5CCC5)nn4)c3)cc2C(F)(F)F)cn1` [Compound 21, 4-Chloro-3-(2-(6-(cyclobutylamino)pyridazin-3-yl)ethynyl)-N-(4-(4-methyl-1H-imidazol-1-yl)-3-(trifluoromethyl)phenyl)benzamide] returned a melting point of 153 to 155 °C.
Same read-out and setting: the value for `Cc1ccc(-c2nc3ccc(CN4CCN(C)CC4)cc3[nH]2)cc1C#Cc1ccc(NC(C)C)nn1` [Compound 4, N-Isopropyl-6-(2-(2-methyl-5-(6-((4-methylpiperazin-1-yl)methyl)-1H-benzo[d]imidazol-2-yl)phenyl)ethynyl)pyridazin-3-amine] was 129 to 130 °C.
The same measure, in the same setting: the value for `Cc1cn(-c2ccc(NC(=O)c3ccc(Cl)c(C#Cc4ccc(NC(C)C)nn4)c3)cc2C(F)(F)F)cn1` [Compound 22] was 133 to 135 °C.
In turn, `Cc1cn(-c2ccc(NC(=O)c3ccc(C)c(C#Cc4cnc(NC5CC5)nc4)c3)cc2C(F)(F)F)cn1` [Compound 28, 3-(2-(2-(Cyclopropylamino)pyrimidin-5-yl)ethynyl)-4-methyl-N-(4-(4-methyl-1H-imidazol-1-yl)-3-(trifluoromethyl)phenyl)benzamide] returned a melting point of 131 to 133 °C. In addition, the viability at 0.1 µM in the series with K562 cells was 12.7%.
In turn, `Cc1ccc(C(=O)Nc2ccc(CN3CCN(C)CC3)c(C(F)(F)F)c2)cc1C#Cc1ccc(NC(C)C)nn1` [Compound 14, 3-(2-(6-(Isopropylamino)pyridazin-3-yl)ethynyl)-4-methyl-N-(4-((4-methylpiperazin-1-yl)methyl)-3-(trifluoromethyl)phenyl)benzamide] gave a melting point of 67 to 68 °C. Moreover, in the series on K562 cells, the viability at 0.1 µM was found to be 8.37%.
`CC(C)Nc1ccc(C#Cc2cc(-c3nc4ccc(CN5CCN(C)CC5)cc4[nH]3)ccc2Cl)nn1` [Compound 9, 6-(2-(2-Chloro-5-(6-((4-methylpiperazin-1-yl)methyl)-1H-benzo[d]imidazol-2-yl)phenyl)ethynyl)-N-isopropylpyridazin-3-amine] registered a melting point of 127 to 128 °C.
`Cc1cn(-c2cc(NC(=O)c3ccc(Cl)c(C#Cc4cnc5cccnn45)c3)cc(C(F)(F)F)c2)cn1` [Compound 32, 4-Chloro-3-(2-(imidazo[1,2-b]pyridazin-3-yl)ethynyl)-N-(3-(4-methyl-1H-imidazol-1-yl)-5-(trifluoromethyl)phenyl)benzamide] returned a melting point of 153 to 154 °C. Moreover, in the series on K562 cells, the viability at 0.1 µM amounted to 9.57%.
As to `Cc1cn(-c2ccc(NC(=O)c3ccc(Cl)c(C#Cc4cnc5cccnn45)c3)cc2C(F)(F)F)cn1` [Compound 31, 4-Chloro-3-(2-(imidazo[1,2-b]pyridazin-3-yl)ethynyl)-N-(4-(4-methyl-1H-imidazol-1-yl)-3-(trifluoromethyl)phenyl)benzamide], the melting point is 153 to 155 °C. In addition, the viability at 0.1 µM with K562 cells amounted to 14.4%.
The molecule `CN1CCN(Cc2ccc(NC(=O)N3CCCC(C#Cc4cnc5cccnn45)C3)cc2C(F)(F)F)CC1` (centres unmarked) [Compound 34, 3-(2-(Imidazo[1,2-b]pyridazin-3-yl)ethynyl)piperidine-N-(4-((4-methylpiperazin-1-yl)methyl)-3-(trifluoromethyl)phenyl)-1-carboxamide] showed a melting point of 65 to 70 °C. Besides, the viability at 0.1 µM in the series with K562 cells amounted to 12%.
Molecule `Cc1cn(-c2cc(NC(=O)c3ccc(C)c(C#Cc4ccc(NC5CCC5)nn4)c3)cc(C(F)(F)F)c2)cn1` [Compound 24, 3-(2-(6-(Cyclobutylamino)pyridazin-3-yl)ethynyl)-4-methyl-N-(3-(4-methyl-1H-imidazol-1-yl)-5-(trifluoromethyl)phenyl)benzamide] had a melting point of 223 to 225 °C. The viability at 0.1 µM in the series with K562 cells stood at 16.4%.
Consider `CC(C)Nc1ccc(C#Cc2cc(C(=O)Nc3ccc(CN4CCN(C)CC4)c(C(F)(F)F)c3)ccc2Cl)nn1` [Compound 17], for which the melting point fell in the range of 133 to 134 °C. In the series with K562 cells, the viability at 0.1 µM is 18.3%.
`CN1CCN(Cc2ccc(NC(=O)c3ccc(Cl)c(C#Cc4ccc(NC5CC5)nn4)c3)cc2C(F)(F)F)CC1` [Compound 15, 4-Chloro-3-(2-(6-(cyclopropylamino)pyridazin-3-yl)ethynyl)-N-(4-((4-methylpiperazin-1-yl)methyl)-3-(trifluoromethyl)phenyl)benzamide] yielded a melting point of 133 to 134 °C. In the series on K562 cells, the viability at 0.1 µM is 17%.
Turning to `Cc1ccc(-c2nc3ccc(CN4CCN(C)CC4)cc3[nH]2)cc1C#Cc1ccc(NC2CC2)nn1` [Compound 2, N-Cyclopropyl-6-(2-(2-methyl-5-(6-((4-methylpiperazin-1-yl)methyl)-1H-benzo[d]imidazol-2-yl)phenyl)ethynyl)pyridazin-3-amine], the melting point lay within 145 to 146 °C.
The molecule `CN1CCN(Cc2ccc3nc(-c4ccc(Cl)c(C#Cc5ccc(NC6CC6)nn5)c4)[nH]c3c2)CC1` [Compound 7, 6-(2-(2-Chloro-5-(6-((4-methylpiperazin-1-yl)methyl)-1H-benzo[d]imidazol-2-yl)phenyl)ethynyl)-N-cyclopropylpyridazin-3-amine] gave a melting point of 130 to 131 °C.
`Cc1cn(-c2ccc(NC(=O)c3ccc(Cl)c(C#Cc4cnc(NC5CC5)nc4)c3)cc2C(F)(F)F)cn1` [Compound 29, 4-Chloro-3-(2-(2-(cyclopropylamino)pyrimidin-5-yl)ethynyl)-N-(4-(4-methyl-1H-imidazol-1-yl)-3-(trifluoromethyl)phenyl)benzamide] registered a melting point of 141 to 143 °C. The viability at 0.1 µM with K562 cells was 5.87%.
`CN1CCN(Cc2ccc(NC(=O)c3ccc(Cl)c(C#Cc4ccc(NC5CCC5)nn4)c3)cc2C(F)(F)F)CC1` [Compound 16, 4-Chloro-3-(2-(6-(cyclobutylamino)pyridazin-3-yl)ethynyl)-N-(4-((4-methylpiperazin-1-yl)methyl)-3-(trifluoromethyl)phenyl)benzamide] had a melting point of 132 to 133 °C. In the series on K562 cells, the viability at 0.1 µM worked out at 8.46%.
The molecule `Cc1cn(-c2ccc(NC(=O)c3ccc(C)c(C#Cc4ccc(NC5CC5)nn4)c3)cc2C(F)(F)F)cn1` [Compound 18, 3-(2-(6-(Cyclopropylamino)pyridazin-3-yl)ethynyl)-4-methyl-N-(4-(4-methyl-1H-imidazol-1-yl)-3-(trifluoromethyl)phenyl)benzamide] returned a melting point of 125 to 126 °C.
For the molecule `Cc1cn(-c2ccc3nc(-c4ccc(C)c(C#Cc5cnc6cccnn56)c4)[nH]c3c2)cn1` [Compound 11, 3-(2-(2-Methyl-5-(6-(4-methyl-1H-imidazol-1-yl)-1H-benzo[d]imidazol-2-yl)phenyl)ethynyl)imidazo[1,2-b]pyridazine], the melting point is 182 to 184 °C.
Turning to `Cc1ccc(C(=O)Nc2ccc(CN3CCN(C)CC3)c(C(F)(F)F)c2)cc1C#Cc1cnc2cccnn12` [AP-24534, reference compound], the viability at 0.1 µM in the series with K562 cells turned out to be 10.1%.
As for `Cc1cn(-c2ccc(NC(=O)c3ccc(Cl)c(C#Cc4ccc(NC5CC5)nn4)c3)cc2C(F)(F)F)cn1` [Compound 20, 4-Chloro-3-(2-(6-(cyclopropylamino)pyridazin-3-yl)ethynyl)-N-(4-(4-methyl-1H-imidazol-1-yl)-3-(trifluoromethyl)phenyl)benzamide], the melting point was in the range of 150 to 152 °C.
Same read-out and setting: under `Cc1cn(-c2cc(NC(=O)c3ccc(C)c(C#Cc4ccc(NC(C)C)nn4)c3)cc(C(F)(F)F)c2)cn1` [Compound 25, 3-(2-(6-(Isopropylamino)pyridazin-3-yl)ethynyl)-4-methyl-N-(3-(4-methyl-1H-imidazol-1-yl)-5-(trifluoromethyl)phenyl)benzamide] stands 192 to 194 °C.
Same read-out and setting: under `Cc1cn(-c2cc(NC(=O)c3ccc(Cl)c(C#Cc4ccc(NC5CCC5)nn4)c3)cc(C(F)(F)F)c2)cn1` [Compound 27, 4-Chloro-3-(2-(6-(cyclobutylamino)pyridazin-3-yl)ethynyl)-N-(3-(4-methyl-1H-imidazol-1-yl)-5-(trifluoromethyl)phenyl)benzamide] stands 225 to 227 °C.
On the same count and under the same terms, the value for `Cc1ccc(-c2nc3ccc(CN4CCN(C)CC4)cc3[nH]2)cc1C#Cc1ccc(NC2CCC2)nn1` [Compound 1, N-Cyclobutyl-6-(2-(2-methyl-5-(6-((4-methylpiperazin-1-yl)methyl)-1H-benzo[d]imidazol-2-yl)phenyl)ethynyl)pyridazin-3-amine] was 148 to 150 °C.

For the origin of these results see patent publication US9174996B2, “Protein kinase inhibitors” (Astar Biotech LLC, priority 2012, dated 2015).
